From US6376429B1, “Benzoylcyclohexanediones, process for their preparation and their use as herbicides and plant growth regulators” (Hoechst Schering AgrEvo GmbH, priority 1998, dated 2002)

Tested on: Sinapis arvensis
Assay: Weed action preemergence
Assay type: in vivo
Details: dose of 1 kg of active substance or less per hectare, visual assessment after 3 to 4 weeks vs untreated controls
Description: Seeds of mono- and dicotyledonous weed plants are put into sandy loam soil in cardboard pots and covered with soil. The compounds according to the invention in the form of wettable powders or emulsion concentrates are then applied to the surface of the covering soil as an aqueous suspension or emulsion with a water application rate of 600 to 800 l/ha after conversion in a dose of 1 kg of active substance or less per hectare after conversion. After the treatment, the pots are placed in a greenhouse and kept under good growth conditions for the weeds. The visual assessment of the plants or emergence damage is carried out after the emergence of the test plants after a test period of 3 to 4 weeks in comparison with untreated controls. In this case, for example, the compounds of Example Nos. 5, 33 and 19 show an at least 80% action against Stellaria media, Lolium multiflorum and Amaranthus retroflexus. The compounds of Example Nos. 2 and 8 show an at least 90% action against Amaranthus retroflexus, Stellaria media and Setaria viridis. The compounds of Example Nos. 2 and 18 show a 100% action against Amaranthus retroflexus and Sinapis arvensis.

CS(=O)(=O)c1ccc(C(=O)C2C(=O)CCCC2=O)c(Cl)c1COc1ccccc1 [Example 2, 2-(2-chloro-4-methylsulfonyl-3-phenoxymethylbenzoyl)cyclohexane-1,3-dione]
action against Sinapis arvensis: 100%
